Results published in PubChem BioAssay (NCI).
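The compound was tested at five concentrations on cells cultured in 96-well plates, with a 48-hour exposure period. Abbreviation: GI50, concentration required for 50% inhibition of growth. At the TGI there is no net growth.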

Experiments:
Assay in all cases: DTP human tumour cell line panel, 48 h; in the data active means GI50 below about 0.43 µM; inactive means the rest
[1] = system: 786-0 renal
[2] = system: A498 renal
[3] = system: A549 NSCLC
[4] = system: ACHN renal
[5] = system: BT-549 breast
[6] = system: CAKI-1 renal
[7] = system: CCRF-CEM leukemia
[8] = system: COLO 205 colon
[9] = system: DU-145 prostate
[10] = system: EKVX NSCLC
[11] = system: HCC-2998 colon
[12] = system: HCT-116 colon
[13] = system: HCT-15 colon
[14] = system: HL-60(TB) leukemia
[15] = system: HOP-62 NSCLC
[16] = system: HOP-92 NSCLC
[17] = system: HT29 colon
[18] = system: IGROV1 ovarian
[19] = system: K-562 leukemia
[20] = system: KM12 colon
[21] = system: LOX IMVI melanoma
[22] = system: M14 melanoma
[23] = system: MALME-3M melanoma
[24] = system: MCF7 breast
[25] = system: MDA-MB-231 breast
[26] = system: MDA-MB-435
[27] = system: MOLT-4 leukemia
[28] = system: NCI-H226 lung
[29] = system: NCI-H23 lung
[30] = system: NCI-H460 lung
[31] = system: NCI-H522 lung
[32] = system: NCI/ADR-RES ovarian
[33] = system: OVCAR-3 ovarian
[34] = system: OVCAR-4 ovarian
[35] = system: OVCAR-5 ovarian
[36] = system: OVCAR-8 ovarian
[37] = system: PC-3 prostate
[38] = system: RXF 393 renal
[39] = system: SF-268 CNS
[40] = system: SF-295 CNS
[41] = system: SF-539 CNS
[42] = system: SK-MEL-2 melanoma
[43] = system: SK-MEL-28 melanoma
[44] = system: SK-MEL-5 melanoma
[45] = system: SK-OV-3 ovarian
[46] = system: SNB-19 CNS
[47] = system: SNB-75 CNS
[48] = system: SR leukemia
[49] = system: SW-620 colon
[50] = system: T-47D breast
[51] = system: TK-10 renal
[52] = system: U251 CNS
[53] = system: UACC-257 melanoma
[54] = system: UACC-62 melanoma
[55] = system: UO-31 renal
[56] = system: HS 578T breast
[57] = system: RPMI-8226 leukemia
[58] = system: SN12C renal

NCCCCN
51.5 µM: TGI [34]
31.4 µM: TGI [26]
> 100 µM: TGI [1] | TGI [2] | TGI [3] | TGI [4] | TGI [5] | TGI [7] | TGI [8] | TGI [9] | TGI [10] | TGI [11] | TGI [12] | TGI [13] | TGI [14] | TGI [15] | TGI [16] | TGI [17] | TGI [18] | TGI [19] | TGI [21] | TGI [22] | TGI [23] | TGI [24] | TGI [25] | TGI [27] | TGI [28] | TGI [29] | TGI [30] | TGI [31] | TGI [32] | TGI [33] | TGI [35] | TGI [36] | TGI [37] | TGI [38] | TGI [39] | TGI [40] | TGI [41] | TGI [42] | TGI [43] | TGI [44] | TGI [45] | TGI [46] | TGI [47] | TGI [48] | TGI [49] | TGI [50] | TGI [51] | TGI [52] | TGI [53] | TGI [54] | TGI [55]
30.2 µM: TGI [6]
38.6 µM: TGI [20]

CCc1ccc(/C(C#N)=C/C=C/c2ccccc2)cc1
inactive: GI50 [1] 11.1 µM | GI50 [2] 2.19 µM | GI50 [3] 2.62 µM | GI50 [4] 8.41 µM | GI50 [5] 7.86 µM | GI50 [6] 10.1 µM | GI50 [7] 3.11 µM | GI50 [8] 1.83 µM | GI50 [9] 4.22 µM | GI50 [11] 6.65 µM | GI50 [12] 1.93 µM | GI50 [13] 0.897 µM | GI50 [14] 2.54 µM | GI50 [15] 2.83 µM | GI50 [16] 2.28 µM | GI50 [56] 5.25 µM | GI50 [17] 1.38 µM | GI50 [18] 7.55 µM | GI50 [19] 0.882 µM | GI50 [20] 1.61 µM | GI50 [21] 10.5 µM | GI50 [22] 2.24 µM | GI50 [23] 6.05 µM | GI50 [24] 1.14 µM | GI50 [25] 5.84 µM | GI50 [27] 6.87 µM | GI50 [28] 17.2 µM | GI50 [29] 6.24 µM | GI50 [30] 3.35 µM | GI50 [31] 2.04 µM | GI50 [32] 2.21 µM | GI50 [33] 2.46 µM | GI50 [34] 18.4 µM | GI50 [35] 7.06 µM | GI50 [36] 5 µM | GI50 [37] 3.15 µM | GI50 [57] 3.41 µM | GI50 [38] 1.29 µM | GI50 [39] 19.3 µM | GI50 [40] 2.51 µM | GI50 [41] 1.52 µM | GI50 [42] 4.92 µM | GI50 [43] 7.12 µM | GI50 [44] 1.09 µM | GI50 [45] 3.08 µM | GI50 [58] 10.6 µM | GI50 [46] 6.88 µM | GI50 [48] 0.644 µM | GI50 [49] 1.22 µM | GI50 [50] 2.4 µM | GI50 [51] 5.79 µM | GI50 [52] 3.16 µM | GI50 [53] > 83.5 µM | GI50 [54] 3.48 µM | GI50 [55] 19.2 µM
> 76.7 µM: TGI [25]
> 42.7 µM: TGI [30]
> 48.4 µM: TGI [9]
9.41 µM: TGI [17]
26.2 µM: TGI [44]
> 83.9 µM: TGI [13] | TGI [27]
4.09 µM: TGI [38]
14.7 µM: TGI [31]
4.69 µM: TGI [41]
78.8 µM: TGI [16]
1.16 µM: TGI [26]
active: GI50 [26] 0.299 µM
> 69 µM: TGI [57]
68.3 µM: TGI [11]
13.6 µM: TGI [33]
> 100 µM: TGI [1] | TGI [3] | TGI [4] | TGI [6] | TGI [7] | TGI [12] | TGI [15] | TGI [56] | TGI [18] | TGI [19] | TGI [20] | TGI [21] | TGI [22] | TGI [23] | TGI [24] | TGI [28] | TGI [29] | TGI [32] | TGI [34] | TGI [35] | TGI [36] | TGI [37] | TGI [39] | TGI [42] | TGI [43] | TGI [58] | TGI [46] | TGI [49] | TGI [50] | TGI [51] | TGI [52] | TGI [53] | TGI [54] | TGI [55]
39.3 µM: TGI [2]
> 62.9 µM: TGI [14]
5.91 µM: TGI [8]
> 61.4 µM: TGI [48]
> 59.8 µM: TGI [5]
10.5 µM: TGI [40]
> 29.3 µM: TGI [45]
